Measured values as given in patent US10800791B2, “Triazole ACC inhibitors and uses thereof” (Gilead Apollo, LLC, priority 2015, dated 2020).
≈ marks a conversion by molar mass, not a printed value. Like-named read-outs stand apart in the source and are kept apart here.

Columns and labels:
[1] = system: Fusarium moniliforme (Fm); test: Growth inhibition assay of fungal pathogens, Fm; assay type: cell-based; settings: Fusarium verticillioides, 48 h, Fusarium moniliforme, read-out: Concentration at 90% Inhibition Fm
In short: (§1)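 Inhibition percentages reflect 48 h OD600 and visual scores relative to a 2% DMSO control. Test concentrations were 50, 10, 2 ppm or 2, 0.4, 0.08 ppm final, applied to spores in 17% V8 medium.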

[2] = system: Fusarium virguliforme (Fv); test: Growth inhibition assay of fungal pathogens, Fv; assay type: cell-based; settings: 48 h, read-out: Concentration at 90% Inhibition Fv
In short: as §1

[3] = system: Collectotrichum graminicola (Cg); test: Growth inhibition assay of fungal pathogens, Cg; assay type: cell-based; settings: 48 h, Collectotrichum graminicola, read-out: Concentration at 90% Inhibition Cg
In short: as §1

Rhizoctonia solani (Rs) = test: Growth inhibition assay of fungal pathogens, Rs; assay type: cell-based; settings: 48 h, mycelial plugs, read-out: Concentration at 90% Inhibition Rs
C. parapsilosis = test: Antifungal Activity Assay (broth microtiter MIC), C. parapsilosis; assay type: cell-based, Candida parapsilosis; settings: Lodderomyces parapsilosis, ATCC22019, 48 h, ATCC 22019, 3 replicates, MIC recorded at 48 h, read-out: MIC, C. parapsilosis ATCC 22019
In short: (§2)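 Broth microdilution per CLSI M27-A3 in RPMI 1640+MOPS, inoculum 2.5×10^3 CFU/mL final from overnight Sabouraud dextrose agar cultures at 35° C. Compounds diluted from DMSO stock to 128 μg/mL in water. MIC read visually versus growth control at 48 h.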

[4] = system: Phytophthora capsici (Pc); test: Growth inhibition assay of fungal pathogens, Pc; assay type: cell-based; settings: 48 h, read-out: Concentration at 90% Inhibition Pc
In short: as §1

C. krusei = test: Antifungal Activity Assay (broth microtiter MIC), C. krusei; assay type: cell-based, Candida krusei; settings: Pichia kudriavzevii, ATCC6258, 48 h, ATCC 6258, 3 replicates, MIC recorded at 48 h, read-out: MIC, C. krusei ATCC 6258
In short: as §2

Septoria tritici (St) = test: Growth inhibition assay of fungal pathogens, St; assay type: cell-based; settings: Zymoseptoria tritici, 48 h, Septoria tritici, read-out: Concentration at 90% Inhibition St
In short: as §1

C. albicans = test: Antifungal Activity Assay (broth microtiter MIC), C. albicans; assay type: cell-based, Candida albicans; settings: Candida albicans, ATCC90028, 48 h, ATCC 90028, 3 replicates, MIC recorded at 48 h, read-out: MIC, C. albicans ATCC 90028
In short: as §2

Diplodia maydis (Dm) = test: Growth inhibition assay of fungal pathogens, Dm; assay type: cell-based; settings: Stenocarpella maydis, 48 h, Diplodia maydis, read-out: Concentration at 90% Inhibition Dm
In short: as §1

human (hACC2) = human (hACC2) (Homo sapiens, UniProt O00763); test: In vitro ACC inhibition assay (ADP-Glo), hACC2; assay type: biochemical; settings: 5 nM ACC2, 20 μM ATP, 20 μM acetyl-CoA
Chain of human (hACC2) (O00763 whole entry): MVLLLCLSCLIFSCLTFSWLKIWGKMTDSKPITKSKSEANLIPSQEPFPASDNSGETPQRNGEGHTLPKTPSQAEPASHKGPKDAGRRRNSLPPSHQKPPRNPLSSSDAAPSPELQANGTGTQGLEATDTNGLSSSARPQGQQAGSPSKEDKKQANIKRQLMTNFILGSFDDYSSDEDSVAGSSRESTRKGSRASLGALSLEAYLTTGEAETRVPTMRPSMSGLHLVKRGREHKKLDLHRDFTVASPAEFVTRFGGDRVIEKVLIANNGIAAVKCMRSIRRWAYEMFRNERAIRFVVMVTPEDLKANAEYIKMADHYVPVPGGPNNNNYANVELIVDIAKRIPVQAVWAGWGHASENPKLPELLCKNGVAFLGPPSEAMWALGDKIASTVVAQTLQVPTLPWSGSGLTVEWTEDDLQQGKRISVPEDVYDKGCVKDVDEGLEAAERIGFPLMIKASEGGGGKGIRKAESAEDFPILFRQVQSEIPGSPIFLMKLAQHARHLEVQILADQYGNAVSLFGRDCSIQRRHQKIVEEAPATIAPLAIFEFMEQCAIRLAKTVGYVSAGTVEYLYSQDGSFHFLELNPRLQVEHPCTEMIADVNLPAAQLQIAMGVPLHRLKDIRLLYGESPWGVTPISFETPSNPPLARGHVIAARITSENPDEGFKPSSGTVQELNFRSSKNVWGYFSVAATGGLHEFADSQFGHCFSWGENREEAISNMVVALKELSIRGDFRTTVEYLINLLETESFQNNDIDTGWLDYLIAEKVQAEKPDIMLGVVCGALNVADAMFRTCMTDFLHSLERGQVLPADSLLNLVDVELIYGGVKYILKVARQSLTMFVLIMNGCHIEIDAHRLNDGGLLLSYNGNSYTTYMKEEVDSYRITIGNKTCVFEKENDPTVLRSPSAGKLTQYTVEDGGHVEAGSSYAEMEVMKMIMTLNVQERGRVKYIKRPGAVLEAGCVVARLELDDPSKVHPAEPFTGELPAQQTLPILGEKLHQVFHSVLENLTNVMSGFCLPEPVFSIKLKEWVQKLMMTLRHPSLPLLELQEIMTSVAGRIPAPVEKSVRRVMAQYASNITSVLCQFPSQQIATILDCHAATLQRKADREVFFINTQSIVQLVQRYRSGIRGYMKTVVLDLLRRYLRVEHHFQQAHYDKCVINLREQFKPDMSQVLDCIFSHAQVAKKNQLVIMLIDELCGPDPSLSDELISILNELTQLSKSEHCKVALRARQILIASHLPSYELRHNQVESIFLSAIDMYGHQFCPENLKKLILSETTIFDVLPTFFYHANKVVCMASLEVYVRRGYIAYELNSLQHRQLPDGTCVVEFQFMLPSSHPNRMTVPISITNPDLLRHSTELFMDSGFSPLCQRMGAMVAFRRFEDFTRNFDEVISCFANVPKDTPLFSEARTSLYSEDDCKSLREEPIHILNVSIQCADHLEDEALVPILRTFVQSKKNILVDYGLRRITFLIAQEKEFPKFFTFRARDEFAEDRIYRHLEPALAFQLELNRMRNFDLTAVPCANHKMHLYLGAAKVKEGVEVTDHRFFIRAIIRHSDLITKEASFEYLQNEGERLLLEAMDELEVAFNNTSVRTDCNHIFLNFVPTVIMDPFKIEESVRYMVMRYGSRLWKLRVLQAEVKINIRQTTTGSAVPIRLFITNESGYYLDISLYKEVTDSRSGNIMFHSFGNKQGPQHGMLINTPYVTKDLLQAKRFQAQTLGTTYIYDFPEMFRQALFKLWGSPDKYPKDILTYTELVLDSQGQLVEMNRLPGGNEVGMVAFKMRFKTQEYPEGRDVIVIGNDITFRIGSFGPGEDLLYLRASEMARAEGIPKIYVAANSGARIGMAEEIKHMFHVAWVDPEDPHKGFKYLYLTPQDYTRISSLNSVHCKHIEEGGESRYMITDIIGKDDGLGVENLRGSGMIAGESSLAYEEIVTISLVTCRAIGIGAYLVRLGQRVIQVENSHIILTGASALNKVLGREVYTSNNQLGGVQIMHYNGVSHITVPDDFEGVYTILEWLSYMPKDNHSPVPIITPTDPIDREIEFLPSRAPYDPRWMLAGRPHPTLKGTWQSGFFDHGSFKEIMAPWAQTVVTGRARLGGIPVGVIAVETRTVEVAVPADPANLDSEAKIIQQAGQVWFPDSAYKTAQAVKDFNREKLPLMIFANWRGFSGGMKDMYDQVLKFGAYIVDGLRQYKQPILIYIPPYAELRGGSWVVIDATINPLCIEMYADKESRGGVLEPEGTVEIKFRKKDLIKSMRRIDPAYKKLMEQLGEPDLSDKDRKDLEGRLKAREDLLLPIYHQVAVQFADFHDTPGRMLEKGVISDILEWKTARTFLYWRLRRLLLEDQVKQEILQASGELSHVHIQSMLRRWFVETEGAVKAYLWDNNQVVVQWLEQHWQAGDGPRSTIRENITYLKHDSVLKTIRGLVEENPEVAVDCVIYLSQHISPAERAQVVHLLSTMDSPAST
Protocol: The detailed procedure is as follows. […] 10 μL ADP glo reagent was added. […] 20 μL kinase detection reagent was added.

[5] = growth inhibition at 48 hours vs 2% DMSO control
[6] = growth inhibition vs 2% DMSO control at 48 hours

Structure (SMILES) | IC90 [1, 5] | IC90 [1, 6] | IC90 [2, 5] | IC90 [2, 6] | IC90 [3, 5] | IC90 [3, 6] | IC90 (Rhizoctonia solani (Rs); [5]) | IC90 (Rhizoctonia solani (Rs); [6]) | MIC (C. parapsilosis; Table 3a) | MIC (C. parapsilosis; Table 3b (additional results)) | IC90 [4, 5] | IC90 [4, 6] | MIC (C. krusei; Table 3a) | MIC (C. krusei; Table 3b (additional results)) | IC90 (Septoria tritici (St); [5]) | IC90 (Septoria tritici (St); [6]) | MIC (C. albicans; Table 3a) | MIC (C. albicans; Table 3b (additional results)) | IC90 (Diplodia maydis (Dm); [5]) | IC90 (Diplodia maydis (Dm); [6]) | other results
COc1ccc(F)cc1[C@H](Cn1c(=O)n(C(C)(C)C(=O)NCC(C)C)c(=O)c2c(C)c(-n3nccn3)sc21)OC1CCOCC1 [Compound I-29, (R)-2-(1-(2-(5-fluoro-2-methoxyphenyl)-2-((tetrahydro-2H-pyran-4-yl)oxy)ethyl)-5-methyl-2,4-dioxo-6-(2H-1,2,3-triazol-2-yl)-1,4-dihydro-thieno[2,3-d]pyrimidin-3(2H)-yl)-N-isobutyl-2-methylpropanamide] | 0.08 µg/mL (≈ 0.124 µM) | 0.08 µg/mL (≈ 0.124 µM) | 0.4 µg/mL (≈ 0.622 µM) | 0.4 µg/mL (≈ 0.622 µM) | 0.4 µg/mL (≈ 0.622 µM) | 0.4 µg/mL (≈ 0.622 µM) | 2 µg/mL (≈ 3.11 µM) | 2 µg/mL (≈ 3.11 µM) | 0.25 to 1 µg/mL (≈ 0.389 to 1.56 µM) | 0.25 to 1 µg/mL (≈ 0.389 to 1.56 µM) | > 50 µg/mL | > 50 µg/mL | 0.06 to 0.24 µg/mL (≈ 0.0933 to 0.373 µM) | 0.06 to 0.249 µg/mL (≈ 0.0933 to 0.387 µM) | 10 µg/mL (≈ 15.6 µM) | > 50 µg/mL | 0.25 to 1 µg/mL (≈ 0.389 to 1.56 µM) | 0.06 to 0.249 µg/mL (≈ 0.0933 to 0.387 µM) | 0.4 µg/mL (≈ 0.622 µM) | 0.4 µg/mL (≈ 0.622 µM) | IC50 (human (hACC2); Table 2a): 5 to 10 nM; IC50 (human (hACC2); Table 2b, additional results): 5 to 10 nM
COc1ccc(F)cc1[C@H](Cn1c(=O)n(C(C)(C)C(N)=O)c(=O)c2c(C)c(-n3nccn3)sc21)OC1CCC(=O)CC1 [Compound I-31, (R)-2-(1-(2-(5-fluoro-2-methoxyphenyl)-2-((4-oxocyclo-hexyl)oxy)ethyl)-5-methyl-2,4-dioxo-6-(2H-1,2,3-triazol-2-yl)-1,4-dihydrothieno[2,3-d]pyrimidin-3(2H)-yl)-2-methylpropanamide] | 0.4 µg/mL (≈ 0.668 µM) | 0.4 µg/mL (≈ 0.668 µM) | 10 µg/mL (≈ 16.7 µM) | > 50 µg/mL | 10 µg/mL (≈ 16.7 µM) | > 50 µg/mL | 2 µg/mL (≈ 3.34 µM) | 2 µg/mL (≈ 3.34 µM) | 1.1 to 2 µg/mL (≈ 1.84 to 3.34 µM) | 2.01 to 4 µg/mL (≈ 3.36 to 6.68 µM) | > 50 µg/mL | > 50 µg/mL | 0.25 to 1 µg/mL (≈ 0.418 to 1.67 µM) | 0.25 to 1 µg/mL (≈ 0.418 to 1.67 µM) | > 50 µg/mL | > 50 µg/mL | 0.25 to 1 µg/mL (≈ 0.418 to 1.67 µM) | 0.25 to 1 µg/mL (≈ 0.418 to 1.67 µM) | 2 µg/mL (≈ 3.34 µM) | 10 µg/mL (≈ 16.7 µM) | IC50 (human (hACC2); Table 2a): 5 to 10 nM; IC50 (human (hACC2); Table 2b, additional results): 5 to 10 nM
